Experimental findings from PubChem BioAssay AID652030 (The Scripps Research Institute Molecular Screening Center, 2013) are described below.

As usually defined, the inhibition is the change of the read-out against control, counted positive when it falls.

Activity calls are given as the source filed them.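 Rule for the calls: active = inhibition of 30% or more against both LYPLA2 panels while inhibition against LYPLA1 stays below 30%; inactive = under 30% on either LYPLA2 panel, or 30%+ on LYPLA1.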

What all share (assay): LYPLA2 and LYPLA1 inhibition in proteome, late-stage follow-up, selectivity assay for LYPLA2 selective inhibitor project, cell lysate, gel-based ABPP, FP-Rh fluorescence, mouse brain membrane proteome (AID 652030)
For experiment [1], the target named is Acyl-protein thioesterase 2 (Homo sapiens) (UniProt O95372). As to conditions: rhLYPLA2, at 10 µM, stronger effect = higher value.
Acyl-protein thioesterase 2 (Homo sapiens), sequence (O95372 whole entry, looked up): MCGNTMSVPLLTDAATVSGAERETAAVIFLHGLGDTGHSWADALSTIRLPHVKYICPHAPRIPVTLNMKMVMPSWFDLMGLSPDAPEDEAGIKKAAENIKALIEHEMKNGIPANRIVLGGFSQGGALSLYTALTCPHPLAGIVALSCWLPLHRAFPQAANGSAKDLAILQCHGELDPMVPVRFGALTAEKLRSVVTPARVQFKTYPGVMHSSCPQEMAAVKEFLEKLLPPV
For experiment [2], the target named is Acyl-protein thioesterase 1 (Mus musculus) (UniProt P97823). As to conditions: emLYPLA1, at 10 µM, stronger effect = higher value.
For experiment [3], the target named is Acyl-protein thioesterase 2 (Mus musculus) (UniProt Q9WTL7). As to conditions: emLYPLA2, at 10 µM, stronger effect = higher value.

As for `O=C(Nc1ccc(N2CCN(C(=O)c3ccco3)CC2)c(Cl)c1)c1c(F)c(F)c(F)c(F)c1F`, the inhibition was 5% (inactive) in experiment [1], 18% (inactive) in experiment [2] and 0% (inactive) in experiment [3].

`Cc1nc(-c2ccc(S(=O)(=O)N3CCCN(CCc4ccccc4)CC3)s2)cs1`: the inhibition in experiment [1] was 8% (inactive); in experiment [2] it was 7% (inactive); in experiment [3] it was 0% (inactive).

On to `Cc1ccccc1NC(=O)CN1C(=O)S/C(=C\c2cccn2-c2cccc(C(=O)O)c2)C1=O`, for which the inhibition is 4% (inactive) in experiment [1], 0% (inactive) in experiment [2] and 13% (inactive) in experiment [3].

With `Cc1nc([N+](=O)[O-])cn1CC(=O)Nc1ccc(F)c(Cl)c1`, the inhibition is 10% (inactive) in experiment [1], 0% (inactive) in experiment [2] and 15% (inactive) in experiment [3].

Take `COc1ccc(OC)c(-c2cc(C(=O)Nc3c(C)nn(Cc4ccccc4)c3C)no2)c1`: the inhibition in experiment [1] is 3% (inactive); in experiment [2], 15% (inactive); in experiment [3] it was 0% (inactive).

Regarding `COc1cc(/C=C2\SC(=O)N(CC(=O)Nc3cccc(C)c3)C2=O)ccc1OC(C)C(=O)O` (centres undefined), the inhibition in experiment [1] was 58%; in experiment [2], 28% (inactive); in experiment [3], 37%.

Turning to `COc1ccc(-n2nc(C(=O)NCC(=O)N3CCN(Cc4ccccc4)CC3)c3ccccc3c2=O)c(OC)c1`, the results for the inhibition in experiment [1], in experiment [2] and in experiment [3] were 18% (inactive), 0% (inactive) and 15% (inactive), respectively.

Regarding `O=C(CN1C(=O)S/C(=C\c2ccc(C(=O)O)cc2)C1=O)Nc1ccccc1`, the inhibition is 8% (inactive) in experiment [1], 7% (inactive) in experiment [2] and 8% (inactive) in experiment [3].

In the case of `COc1cc(C=NNC(=O)C(NC(=O)c2ccccc2)c2n[nH]c(=O)c3ccccc23)ccc1OCC(N)=O` (centres undefined), the inhibition in experiment [1] was 9% (inactive); in experiment [2], 14% (inactive); in experiment [3], 3% (inactive).

Turning to `C/C(C=NNC(=O)Cn1nnc(N)n1)=C\c1ccc(C(C)C)cc1`, the inhibition in experiment [1] is 2% (inactive); in experiment [2], 0% (inactive); in experiment [3] it was 0% (inactive).

Consider `O=C(N1CCOCC1)n1nnc2ccccc21`, for which the inhibition in experiment [1] was 47%; in experiment [2], 103%; in experiment [3], 54%.

With `CC(CCC(C)C)=NNC(=S)Nc1cc(S(=O)(=O)N2CCOCC2)ccc1N1CCOCC1`, the inhibition in experiment [1] was 8% (inactive); in experiment [2], 19% (inactive); in experiment [3], 16% (inactive).

In the case of `CON=Cc1ccc(N2CCN(C(=O)c3cccc(C(F)(F)F)c3)CC2)c([N+](=O)[O-])c1`, the inhibition in experiment [1], in experiment [2] and in experiment [3] was 14% (inactive) each time.

As for `COc1ccc(N2CCN(C(=O)C3CCC(Cn4c(=S)[nH]c5ccccc5c4=O)CC3)CC2)cc1` (centres undefined), the inhibition is 47% in experiment [1], 16% (inactive) in experiment [2] and 44% in experiment [3].

Regarding `CC(=O)N1c2ccc(S(=O)(=O)N3CCC(C(=O)N4CCN(c5ccc(Cl)cc5)CC4)CC3)cc2CC1C` (centres undefined), the values for the inhibition in experiment [1], in experiment [2] and in experiment [3] were 32%, 3% (inactive) and 26% (inactive), respectively.

Turning to `COc1ccc(OC)c(-c2cc(C(=O)Nc3c(C)nn(Cc4ccccc4C)c3C)no2)c1`, the inhibition in experiment [1] is 8% (inactive); in experiment [2] it was 6% (inactive); in experiment [3] it was 0% (inactive).

Regarding `CCN(CC)S(=O)(=O)c1ccc(N2CCOCC2)c(NC(=O)COc2ccc(C#N)cc2)c1`, the inhibition was 3% (inactive) in experiment [1], 12% (inactive) in experiment [2] and 0% (inactive) in experiment [3].

`Cc1cccc(NC(=O)CN2C(=O)S/C(=C\c3cc(C)n(C)c3C)C2=O)c1`: the values for the inhibition in experiment [1], in experiment [2] and in experiment [3] were 51%, 9% (inactive) and 40%, respectively.

Regarding `Cc1ccc(NC(=O)Cn2c([N+](=O)[O-])cnc2C)cc1Cl`, the values for the inhibition in experiment [1], in experiment [2] and in experiment [3] were 8% (inactive), 0% (inactive) and 8% (inactive), respectively.

`Cc1cccc(N2CCN(C(=O)Cc3ccc(-n4c(=O)[nH]c5ccsc5c4=O)cc3)CC2)c1C`: the inhibition in experiment [1] was 4% (inactive); in experiment [2], 14% (inactive); in experiment [3] it was 0% (inactive).

For the compound `COc1ccccc1-c1nnc(C2CCN(S(=O)(=O)c3ccc([N+](=O)[O-])cc3)CC2)o1`, the inhibition is 9% (inactive) in experiment [1], 16% (inactive) in experiment [2] and 5% (inactive) in experiment [3].

In the case of `CC(=O)c1ccc(N2CCN(C(=O)C3CCN(S(=O)(=O)c4ccc5c(c4)CC(C)N5C(C)=O)CC3)CC2)cc1` (centres undefined), the inhibition in experiment [1] was 8% (inactive); in experiment [2], 18% (inactive); in experiment [3], 10% (inactive).

With `Cc1ccc(N/C=C(\C#N)c2ccc(OCCCF)cc2)cc1`, the inhibition in experiment [1] is 5% (inactive); in experiment [2], 17% (inactive); in experiment [3], 13% (inactive).

On to `CC(=O)c1ccc(N2CCN(C(=O)C3CCN(S(=O)(=O)c4ccc5c(c4)CC(C)N5C(=O)C4CC4)CC3)CC2)cc1` (centres undefined), for which the values for the inhibition in experiment [1], in experiment [2] and in experiment [3] were 10% (inactive), 18% (inactive) and 19% (inactive), respectively.

As to `CCCCCCCCCC(=O)Nn1cnc2ccccc2c1=O`, the results for the inhibition in experiment [1], in experiment [2] and in experiment [3] were 4% (inactive), 28% (inactive) and 12% (inactive), respectively.

In the case of `O=C(Cc1ccc([N+](=O)[O-])cc1)N1CCN(c2ccc([N+](=O)[O-])cc2)CC1`, the inhibition in experiment [1], in experiment [2] and in experiment [3] was 0% (inactive) throughout.

Turning to `COc1ccc(N2CCN(C(=O)c3cc4c(s3)-c3ccccc3S(=O)(=O)C4)CC2)cc1`, the inhibition was 79% in experiment [1], 25% (inactive) in experiment [2] and 74% in experiment [3].

As for `COc1ccc(/C=C2\SC(=O)N(CC(=O)Nc3ccc(F)cc3)C2=O)cc1O`, the values for the inhibition in experiment [1], in experiment [2] and in experiment [3] were 16% (inactive), 15% (inactive) and 24% (inactive), respectively.

In the case of `COc1cc(C2Oc3cc(C4Oc5cc(O)cc(O)c5C(=O)C4O)ccc3OC2CO)ccc1O` (centres undefined), the inhibition in experiment [1] was 14% (inactive); in experiment [2], 10% (inactive); in experiment [3], 19% (inactive).

As to `COc1ccc(N2CCN(C(=O)c3ccc(C(C)(C)C)cc3)CC2)cc1`, the results for the inhibition in experiment [1], in experiment [2] and in experiment [3] were 57%, 16% (inactive) and 47%, respectively.

For the compound `COc1ccc(-n2nc(C(=O)NCC(=O)N3CCN(Cc4ccc5c(c4)OCO5)CC3)c3ccccc3c2=O)cc1OC`, the inhibition was 26% (inactive) in experiment [1], 0% (inactive) in experiment [2] and 23% (inactive) in experiment [3].

In the case of `COc1ccc(-n2nc(C(=O)NCC(=O)N3CCN(c4cccc(Cl)c4)CC3)c3ccccc3c2=O)c(OC)c1`, the inhibition in experiment [1] was 52%; in experiment [2], 33%; in experiment [3], 41%.

In the case of `O=[N+]([O-])c1ccc(Oc2cccc(Br)c2)c2ccncc12`, the inhibition in experiment [1] was 2% (inactive); in experiment [2] it was 13% (inactive); in experiment [3] it was 0% (inactive).

Consider `O=C(c1ccc2n[nH]nc2c1)N1CCN(c2ccc(C(F)(F)F)cn2)CC1`, for which the inhibition in experiment [1] was 26% (inactive); in experiment [2] it was 40%; in experiment [3], 35%.

Regarding `Cc1cccc(NC(=O)CN2C(=O)S/C(=C\c3cccn3-c3cccc(C(=O)O)c3)C2=O)c1`, the figures for the inhibition in experiment [1], in experiment [2] and in experiment [3] were 66%, 17% (inactive) and 77%, respectively.

Regarding `COc1ccc2c(c1)C(=O)[C@@H](O)[C@H](c1ccc(OC)c(Br)c1)O2`, the inhibition in experiment [1] is 20% (inactive); in experiment [2], 13% (inactive); in experiment [3], 31%.

Turning to `Cc1ccc(Oc2ccc3c(c2)C(=O)N(c2ccc(S(=O)(=O)Nc4nccs4)cc2)C3=O)cc1`, the inhibition was 9% (inactive) in experiment [1], 14% (inactive) in experiment [2] and 6% (inactive) in experiment [3].

For the compound `COc1ccccc1-n1cc(C(=O)NCC(=O)N2CCN(Cc3ccccc3)CC2)c2ccccc2c1=O`, the results for the inhibition in experiment [1], in experiment [2] and in experiment [3] were 14% (inactive), 0% (inactive) and 15% (inactive), respectively.

Take `O=C(O)c1cccc(N2C(=O)c3ccc(Oc4ccc(Cl)cc4)cc3C2=O)c1`: the inhibition in experiment [1] is 7% (inactive); in experiment [2] it was 25% (inactive); in experiment [3], 11% (inactive).

As for `CS(=O)(=O)Nc1ccc(N2CCN(c3ccc(C(F)(F)F)cn3)CC2)nc1`, the inhibition in experiment [1] is 8% (inactive); in experiment [2] it was 0% (inactive); in experiment [3], 1% (inactive).

`O=C(O)c1ccc(CN2C(=O)c3ccc(Oc4ccc([N+](=O)[O-])cc4)cc3C2=O)cc1`: the inhibition is 7% (inactive) in experiment [1], 6% (inactive) in experiment [2] and 4% (inactive) in experiment [3].

`O=C(NC(=S)Nc1sc2c(c1C(=O)O)CCCC2)c1ccccc1`: the results for the inhibition in experiment [1], in experiment [2] and in experiment [3] were 32%, 34% and 43%, respectively.

On to `O=C(COc1ccc(Cl)cc1Cl)N1CCN(C/C=C/c2ccccc2)CC1`, for which the inhibition in experiment [1] is 2% (inactive); in experiment [2] it was 0% (inactive); in experiment [3], 0% (inactive).
